Experimental data: US8313744B2, “Composition for the prevention and treatment of absence seizures comprising PKC agonist as an effective ingredient” (Korea Institute of Science and Technology, priority 2010, dated 2012)

Legend:
Format in all cases: in vivo
PLCβ4 knock-out mouse [1] = assay: Change of SWD after injection of PKC agonist or calcium channel blocker into the thalamus relay nuclei, EEG measurement
PLCβ4 knock-out mouse [2] = assay: SWD reduction by ethosuximide, EEG measurement; details: 200 mg/kg intraperitoneal, EEG recorded 1 hour, starting 30 minutes after injection, compared with NaCl control
PLCβ4 knock-out mouse [3] = assay: Sensitivity to absence seizure inducing agents (GABAB receptor agonists), EEG measurement; details: PLCβ4 knock-out mouse compared with normal mouse
[4] = 10 pmol injected into thalamus relay nuclei, compared with before / 0.9% NaCl

Structure (SMILES): CCCCCCCCCC(=O)O[C@@H]1[C@@H](C)[C@@]2(O)[C@@H](C=C(CO)C[C@]3(O)C(=O)C(C)=C[C@@H]23)[C@@H]2C(C)(C)[C@]12OC(=O)CCCCCCCCC [PDD, phorbol 12,13-didecanoate]
- SWD (hourly number) in EEG (PLCβ4 knock-out mouse [1]; [4]): significantly reduced
- SWD (hourly number) in EEG (PLCβ4 knock-out mouse [1]; 10 pmol injected into thalamus relay nuclei, compared with before / 0.9% NaCl, listed as phorbol 12,13-didecanoate): reduced

Structure (SMILES): CCCCCCCCCCCCCC(=O)O[C@@H]1[C@@H](C)[C@@]2(O)[C@@H](C=C(CO)C[C@]3(O)C(=O)C(C)=C[C@@H]23)[C@@H]2C(C)(C)[C@]12OC(C)=O [PMA, phorbol 12-myristate 13-acetate]
- SWD (hourly number) in EEG (PLCβ4 knock-out mouse [1]; [4]): significantly reduced
- SWD (hourly number) in EEG (PLCβ4 knock-out mouse [1]; 10 pmol injected into thalamus relay nuclei, compared with before / 0.9% NaCl, listed as phorbol 12-myristate 13-acetate): reduced

Structure (SMILES): CCC1(C)CC(=O)NC1=O (centres unmarked) [ethosuximide]
- SWD (spike-and-wave discharge) in EEG (PLCβ4 knock-out mouse [2]): significantly reduced

Structure (SMILES): COCC(=O)O[C@]1(CCN(C)CCCc2nc3ccccc3[nH]2)CCc2cc(F)ccc2[C@@H]1C(C)C [mibefradil]
- SWD (hourly number) in EEG (PLCβ4 knock-out mouse [1]; 1 nmol injected into thalamus relay nuclei): significantly reduced

Structure (SMILES): O=C1CCCO1 [γ-butyrolactone]
- absence seizure specific SWD (PLCβ4 knock-out mouse [3]; after absence seizure inducing drug): increased
- duration of paroxysmal SWD after drug administration (PLCβ4 knock-out mouse [3]; intraperitoneal, γ-butyrolactone 40 or 70 mg/kg, RS(+/−)-baclofen 20 mg/kg): continued even longer
